Data on two molecules can be found in patent US7563758B2, “Enzymatic production of peracids using Lactobacilli having perhydrolysis activity” (E. I. du Pont de Nemours and Company, priority 2005, dated 2009).

Assay in all cases: Minimum biocidal concentration (MBC) of peracetic acid, XTT microtiter assay
What all share (assay type): cell-based
Conditions in all cases: 5-log kill; exposure at room temperature (e.g., 10 minutes)
On the technique in general: Tetrazolium dyes change colour on reduction, which living cells bring about.

Experiment [1] relates to Pseudomonas aeruginosa ATCC 15442. The source says:
(§1) The method described by J. Gabrielson, et al. (J. Microbiol. Methods 50: 63-73 (2002)) can be employed for determination of the Minimum Biocidal Concentration (MBC) of peracids, or of hydrogen peroxide and enzyme substrates. The assay method is based on XTT reduction inhibition, where XTT ((2,3-bis[2-methoxy-4-nitro-5-sulfophenyl]-5-[(phenylamino)carbonyl]-2H-tetrazolium, inner salt, monosodium salt) is a redox dye that indicates microbial respiratory activity by a change in optical density (OD) measured at 490 nm or 450 nm. However, there are a variety of other methods available for testing the activity of disinfectants and antiseptics including, but not limited to viable plate counts, direct microscopic counts, dry weight, turbidity measurements, absorbance, and bioluminescence (see, for example Brock, Semour S., Disinfection, Sterilization, and Preservation, 5th edition, Lippincott Williams & Wilkins, Philadelphia, Pa., USA; 2001).
(§2) The minimum biocidal concentration (MBC) of peracid required to produce a 5-log kill of Staphylococcus aureus ATCC 6538, Salmonella cholerasuis ATCC 10708 and Pseudomonas aeruginosa ATCC 15442 was determined according to the following procedure. Cultures were grown in 5 mL LB broth (Media Tech, Inc.) for 17-24 hours at 35° C. with shaking and subsequently plated on Trypticase Soy Agar (VWR). At least 3 consecutive daily transfers were made. Plates were incubated for 20-24 hours at 35° C.±2° C. Each culture was removed from the agar surface by flooding with 5-7 mL of phosphate buffer, pH 7.2. (e.g., Butterflies or equivalent) and transferred into a sterile flask. The OD600 of the culture suspension was measured and the cell suspension was diluted in phosphate buffer to a final cell density between 1-2 E+05 and 1-2 E+06 CFU/mL, where the final cell concentration was adjusted to produce the concentration needed for the number of logs kill required. The peracetic acid solution to be tested was diluted by doubling dilutions from 600 ppm to 0.5 ppm in sterile water. Test inoculum (100 μL) was added each well of a 96-well microtiter plate, columns 1-11; column 12 was employed for a blank check using sterile dd water in place of inoculum. Decreasing concentrations of peracid solution (100 μL) was added across columns 1-10, and the plates held at room temperature for the required exposure time (e.g., 10 minutes). A Neutralization/detection plate was prepared with Letheen Broth (Difco #268110) and XTT (4 mM stock in water, 2,3-bis-[2-methoxy-4-nitro-5-sulfophenyl]-2H-tetrazolium-5-carboxanilide inner salt); 190 μL was added to each well of a fresh 96 well microtiter plate. From each well of the exposure plate, a 10 μL aliquot was transferred to the neutralization/detection plate. An OD450 reading was measured, and the plate incubated at 35° C.±2° C. for 24 hours. A second OD450 was measured, where orange color was indicative of cell growth. A suspension to test organism(s) was prepared equal to 1-2 E+04 CFU/mL. Add A 10 μL aliquot of this suspension was added to each negative well except column 12, and the plates incubated at 35° C.±2° C. for 24 hours. […] The MBC of peracetic acid generated enzymatically from triacetin by Lactobacillus plantarum ATCC BAA793 (Table 11) indicated equivalency with commercial peracetic acid.

Experiment [2] has as its system Salmonella cholerasuis ATCC 10708.
From the text: as §1, §2

Experiment [3] relates to Staphylococcus aureus ATCC 6538.
From the text: as §1, §2

`CC(=O)OO` [L. plantarum ATCC BAA793, peracetic acid]: the “MBC in ppm PAA, Pseudomonas aeruginosa ATCC 15442” value in experiment [1] is listed as 1.4 ppm PAA. Besides, in experiment [2], the “MBC in ppm PAA, Salmonella cholerasuis ATCC 10708” value is listed as 1.4 ppm PAA. The “MBC in ppm PAA, Staphylococcus aureus ATCC 6538” value in experiment [3] was 1.4 ppm PAA.
For the molecule `CC(=O)OO` [Sigma Lot # 07726EC, peracetic acid, reference compound], in experiment [1], the “MBC in ppm PAA, Pseudomonas aeruginosa ATCC 15442” value is 2.4-14 ppm PAA. Further, the “MBC in ppm PAA, Staphylococcus aureus ATCC 6538” value in experiment [3] was 1.8-2.4 ppm PAA.
